{
  "source": "patent US8945540B2",
  "about": "“Compositions for enhancing the antibacterial activity of myeloperoxidase and methods of use thereof” (Exoxemis, Inc., priority 2008, dated 2015)",
  "key": {"Staphylococcus aureus [1]": {"test_system": "Staphylococcus aureus", "experiment": "Microbicidal activity of the myeloperoxidase system (p-MPO, glucose oxidase, glucose) with amino acids in the presence of blood, CFU plate counts; synergy determination from these CFU", "type": "cell-based", "details": "for Average Viability CFU/ml 60 min / Log Reduction 60 min: Table 7, amino acid analogue 5 mM, MPO 38 U/ml, GO 33.3 U/ml, blood; for Average Viability CFU/ml 50 min / Log Reduction 50 min: Table 19, amino acid (racemic, L- or D-form) 2.5 mM, MPO 4.7 U/ml, GO 4.2 U/ml; for Predicted vs Actual: actual CFU as % of predicted value; for Predicted Average of Amino Acids: average of CFU of the individual D- and L-enantiomers; for Actual CFU: racemic mixture, standard conditions of Example 5", "protocol": "Bacterial suspensions, specifically Staphylococcus aureus in this example, were prepared by the shake flask method to achieve late log to early stationary phase growth. Bacteria were grown 24 hours in trypticase soy broth (TSB) at 35° C. The cultures were centrifuged at 4,000 rpm for 10 minutes and the supernatants removed. The pellet was collected and washed twice with sterile 0.9% normal saline (NS). The washed microorganisms were suspended and diluted with normal saline to a 3 McFarland standard, i.e., approximately 10^9 bacteria colony forming units (CFU) per mL. Actual colony counts are confirmed by serial dilutions (10^−1 to 10^−5 or 10^−6) plated on TSA and incubated overnight at 35° C. To obtain an approximate final working target inoculum of 10^7 CFU/mL, 15 microliters of organisms per mL of final reaction mixture are used.\nGlucose oxidase (GO) from Aspergillus Niger was purchased from Biozyme, Inc., UK, Cat #GO3A, 270 U/mg). Porcine Myeloperoxidase (p-MPO) (Exoxemis, Inc., Little Rock, Ark. U.S.A., 375 U/mg). Sterile stock solutions of D-glucose and sodium chloride were prepared and used at a final concentration of 150 mM each. L-Lysine hydrochloride (Spectrum Chemical Cat #L1142) was prepared as a 100 mM stock solution. Catalase (Sigma, Cat #C-40) was prepared as a 1% stock solution in sterile 0.9% normal saline. Blood was collected by venipuncture and used as whole blood within the same day.\nStaphylococcus aureus were used to give a final target concentration of 2-3×10^7 CFU (7.4 log 10) per mL and venous whole blood was used to give a final concentration of 3%. Glucose was added to the reaction mixtures to a final concentration of 150 mM, which initiated the microbicidal reaction. The final volume of the reaction mixtures was 1 mL. The reactions were allowed to run from 30 minutes to 2 hours, as needed, at room temperature or at 37° C. in a dry bath. At the specified time points the reaction mixtures were treated with 100 microliters of a catalase solution, containing a minimum of 100 units/μL, to consume remaining peroxide and terminate the oxidative killing. Serial dilution plate counts were performed from the contents of each vial in sterile saline and inoculated onto trypticase soy agar (TSA) for quantitative culture. Plates were then incubated at 37° C. and counts taken at 24 hours. […] The results are shown in Table 1, as the average of 2 replicates.\nThe amino acids alone, in the absence of MPO were tested to rule out their microbicidal activity. The results are shown in Table 2 to Table 6, as the average of 2 replicates.\nThe amino acid analogues alone, in the absence of MPO, were tested to rule out their microbicidal activity. […]\nThe effect of two-way combinations of individual amino acids with L-isoleucine, as potential enhancing agents, for MPO microbicidal action in the presence of blood, was therefore examined by following the procedure of Example 5.\nThe Actual CFU observed for the pair is then divided by the Predicted CFU and multiplied by 100 to calculate the % of Predicted value. This value is then to be compared to the threshold value, discussed in the next section, to determine whether the pair are synergistic, antagonistic, or additive.\nCalculation of appropriate threshold values for determination of synergism and antagonism was based upon the variability of replicated CFU survivor measures."}, "Staphylococcus aureus [2]": {"test_system": "Staphylococcus aureus", "experiment": "Control: microbicidal activity of the amino acid or analogue alone (no glucose, MPO, glucose oxidase) in the presence of blood", "type": "cell-based", "details": "amino acid analogue alone 5 mM, MPO 0, GO 0, no glucose, blood; for log reduction at 5000 µM: Staphylococcus aureus, 1 h, read-out: Log Reduction 60 min", "description": "As a control to determine the microbicidal activity of the amino acids alone, the foregoing procedure was followed without replication, except in the absence of glucose, MPO, and glucose oxidase."}},
  "data": [
    {"smiles": "Cl.NCC(N)C(=O)O", "note": "(racemic) [DL-2,3-Diaminopropionic acid monohydrochloride]", "values": [
      {"measurement": "Average Viability CFU/ml 60 min", "setting": "Staphylococcus aureus [1]", "result": 0, "unit": "CFU/ml"},
      {"measurement": "Log Reduction 60 min", "setting": "Staphylococcus aureus [1]", "result": 7.4},
      {"measurement": "log reduction at 5000 µM", "setting": "Staphylococcus aureus [2]", "result": 0},
      {"measurement": "Average Viability CFU/ml 60 min", "setting": "Staphylococcus aureus [2]", "result": 20600000, "unit": "CFU/ml"}
    ]},
    {"smiles": "CC(CN)C(=O)O", "note": "(racemic) [DL-3-Aminoisobutyric acid]", "values": [
      {"measurement": "Average Viability CFU/ml 60 min", "setting": "Staphylococcus aureus [1]", "result": 0, "unit": "CFU/ml"},
      {"measurement": "Log Reduction 60 min", "setting": "Staphylococcus aureus [1]", "result": 7.4},
      {"measurement": "Average Viability CFU/ml 60 min", "setting": "Staphylococcus aureus [2]", "result": 24200000, "unit": "CFU/ml"},
      {"measurement": "Log Reduction 60 min", "setting": "Staphylococcus aureus [2]", "result": 0.0}
    ]},
    {"smiles": "CC(C)CC(N)CC(=O)O", "note": "(racemic) [DL-Beta-homoleucine]", "values": [
      {"measurement": "Average Viability CFU/ml 60 min", "setting": "Staphylococcus aureus [1]", "result": 0, "unit": "CFU/ml"},
      {"measurement": "Log Reduction 60 min", "setting": "Staphylococcus aureus [1]", "result": 7.4},
      {"measurement": "log reduction at 5000 µM", "setting": "Staphylococcus aureus [2]", "result": 0},
      {"measurement": "Average Viability CFU/ml 60 min", "setting": "Staphylococcus aureus [2]", "result": 20500000, "unit": "CFU/ml"}
    ]},
    {"smiles": "CC[C@H](C)[C@H](N)C(=O)O", "note": "(racemic) [d,l-Isoleucine]", "values": [
      {"measurement": "Average Viability CFU/ml 50 min", "setting": "Staphylococcus aureus [1]", "result": 64000, "unit": "CFU/ml"},
      {"measurement": "Log Reduction 50 min", "setting": "Staphylococcus aureus [1]", "result": 2.7},
      {"measurement": "Predicted vs Actual", "setting": "Staphylococcus aureus [1]", "result": 39, "unit": "%"},
      {"measurement": "Predicted Average of Amino Acids", "setting": "Staphylococcus aureus [1]", "result": 162667, "unit": "CFU"},
      {"measurement": "Actual CFU", "setting": "Staphylococcus aureus [1]", "result": 64000, "unit": "CFU"}
    ]},
    {"smiles": "CC(C)CC(N)C(=O)O", "note": "(racemic) [d,l-Leucine]", "values": [
      {"measurement": "Average Viability CFU/ml 50 min", "setting": "Staphylococcus aureus [1]", "result": 650000, "unit": "CFU/ml"},
      {"measurement": "Log Reduction 50 min", "setting": "Staphylococcus aureus [1]", "result": 1.6},
      {"measurement": "Predicted vs Actual", "setting": "Staphylococcus aureus [1]", "result": 310, "unit": "%"},
      {"measurement": "Predicted Average of Amino Acids", "setting": "Staphylococcus aureus [1]", "result": 209500, "unit": "CFU"},
      {"measurement": "Actual CFU", "setting": "Staphylococcus aureus [1]", "result": 650000, "unit": "CFU"}
    ]},
    {"smiles": "NC(Cc1ccccc1)C(=O)O", "note": "(racemic) [d,l-Phenylalanine]", "values": [
      {"measurement": "Average Viability CFU/ml 50 min", "setting": "Staphylococcus aureus [1]", "result": 900000, "unit": "CFU/ml"},
      {"measurement": "Log Reduction 50 min", "setting": "Staphylococcus aureus [1]", "result": 1.4},
      {"measurement": "Predicted vs Actual", "setting": "Staphylococcus aureus [1]", "result": 9, "unit": "%"},
      {"measurement": "Predicted Average of Amino Acids", "setting": "Staphylococcus aureus [1]", "result": 9950000, "unit": "CFU"},
      {"measurement": "synergistic, antagonistic or additive", "setting": "Staphylococcus aureus [1]; from % of predicted value", "result": "synergistic (synergistic combinations with responses less than 25% of the predicted value)"},
      {"measurement": "Actual CFU", "setting": "Staphylococcus aureus [1]", "result": 900000, "unit": "CFU"}
    ]},
    {"smiles": "CC(C)C(N)C(=O)O", "note": "(racemic) [d,l-Valine]", "values": [
      {"measurement": "Average Viability CFU/ml 50 min", "setting": "Staphylococcus aureus [1]", "result": 685000, "unit": "CFU/ml"},
      {"measurement": "Log Reduction 50 min", "setting": "Staphylococcus aureus [1]", "result": 1.5},
      {"measurement": "Predicted vs Actual", "setting": "Staphylococcus aureus [1]", "result": 187, "unit": "%"},
      {"measurement": "Predicted Average of Amino Acids", "setting": "Staphylococcus aureus [1]", "result": 367250, "unit": "CFU"},
      {"measurement": "Actual CFU", "setting": "Staphylococcus aureus [1]", "result": 685000, "unit": "CFU"}
    ]},
    {"smiles": "CC(N)CC(=O)O", "note": "(stereo not shown) [3-Aminobutanoic acid]", "values": [
      {"measurement": "Average Viability CFU/ml 60 min", "setting": "Staphylococcus aureus [1]", "result": 9, "unit": "CFU/ml"},
      {"measurement": "Log Reduction 60 min", "setting": "Staphylococcus aureus [1]", "result": 6.4},
      {"measurement": "log reduction at 5000 µM", "setting": "Staphylococcus aureus [2]", "result": 0},
      {"measurement": "Average Viability CFU/ml 60 min", "setting": "Staphylococcus aureus [2]", "result": 21300000, "unit": "CFU/ml"}
    ]}
  ]
}
